Data taken from patent US4208410A, “Dibenzo[d,g][1,3,6]dioxazocine derivatives” (priority 1977, dated 1980).
Structures can show the parent of a compound that is named as a salt. Where two headings read alike, the source gives them in different places.

How the values were obtained:
[1] = Acute toxicity in white mice, peroral; conditions: mouse, in vivo, po, white mice CFLP
Protocol: Acute toxicity of the compounds was tested on white mice from the strain CFLP. Administration was effected perorally.

nicotine lethality = assay: animal or person; format: in vivo, white mice; conditions: po; for ED50: Mus musculus, read-out: ED50, inhibition of nicotine lethality; for LD50/ED50, inhibition of nicotine lethality: mouse, in vivo
Protocol: (§1) This activity was tested on white mice, on the basis of the inhibition of tremor induced by tremorine [1,1'-(2-butynylene)-dipyrrolidine] and of nicotine lethality. For comparison Trihexyphenidyl [α-cyclohexyl-α-phenyl-1-piperidinepropanol hydrochloride] and L-DOPA [L-(-)-β-(3,4-dihydroxyphenyl)alanine] are used.

mice [2] = assay: Duration of the local anaesthetic effect; format: in vivo
[3] = system: tremor induced by tremorine; assay: Inhibition of tremor induced by tremorine (Science, 124, 79/1956/); format: in vivo, white mice; conditions: for ED50: Mus musculus, read-out: ED50, inhibition of tremor by tremorine
Protocol: as §1

mice [4] = assay: Local anaesthetic activity (Acta Chirurg. Scand. 116, 351 (1958)); format: in vivo; conditions: for EC50 (concentration at which the local anaesthetic activity amounted to 50%): 0.25% and 0.5% solutions tested; for LD50/EC50: local anaesthetic activity
Protocol: In order to observe the local anaesthetic activity of the instant compounds 0.25% and 0.5% solution thereof were tested following the method described in Acta Chirurg. Scand. 116, 351 (1958). The test animals were mice.

| SMILES | LD50 [1] [mg/kg] | ED50 (nicotine lethality) [mg/kg] | LD50/ED50, inhibition of nicotine lethality (nicotine lethality) | Duration of the effect (mice [2]; 0.25% solution) [min] | Duration of the effect (mice [2]; 0.5% solution) [min] | ED50 ([3]; po, white mice) [mg/kg] | LD50/ED50, inhibition of tremor by tremorine ([3]; mouse, in vivo, po) | EC50 (concentration at which the local anaesthetic activity amounted to 50%) (mice [4]) [%] | LD50/EC50 (mice [4]) | ED50 ([3]; po) [mg/kg] | LD50/ED50, inhibition of tremor by tremorine ([3]; p.o., white mice) |
| --- | --- | --- | --- | --- | --- | --- | --- | --- | --- | --- | --- |
| Clc1ccc2c(c1)Nc1ccccc1OCO2 [Example 1, 2-Chloro-12H-dibenzo[d,g][1,3,6]dioxazocine] | > 2000 | – | – | – | – | – | – | – | – | – | – |
| CN(C)CCCN1c2ccccc2OCOc2ccc(Cl)cc21 [Example 3, 2-Chloro-12H-12-(3-dimethylaminopropyl)-dibenzo[d,g][1,3,6]dioxazocine maleinate] | 760 | 14 | 54 | 71 | 103 | 8 | 95 | 0.15 | 5060 | – | – |
| Clc1ccc2c(c1)N(CCN1CCCCC1)c1ccccc1OCO2 [Example 5, 2-Chloro-12H-12-(2-piperidinoethyl)-dibenzo[d,g][1,3,6]dioxazocine hydrochloride] | 700 | 60 | 12 | 34 | 65 | 18 | 38.9 | 0.32 | 2180 | – | – |
| CC(CN(C)C)CN1c2ccccc2OCOc2ccc(Cl)cc21 (stereo not shown) [Example 6, 2-Chloro-12H-12-(2-methyl-3-dimethylaminopropyl)dibenzo[d,g][1,3,6]dioxazocine hydrochloride] | 270 | – | 25 | 67 | 161 | 11 | 25 | 0.12 | 2250 | – | – |
| CN1CCN(CCN2c3ccccc3OCOc3ccc(Cl)cc32)CC1 [Example 7, 2-Chloro-12H-12-[2-(N-methylpiperazino)-ethyl]dibenzo[d,g][1,3,6]dioxazocine dihydrochloride] | 600 | – | – | 53 | 260 | 30 | 20 | 0.13 | 4600 | – | – |
| Clc1ccc2c(c1)N(CCN1CCOCC1)c1ccccc1OCO2 [Example 8, 2-Chloro-12H-12-(2-morpholinoethyl)-dibenzo[d,g][1,3,6]dioxazocine maleinate] | > 2000 | 140 | 14 | – | – | – | – | – | – | – | – |
| CN(C)CCCN1c2cc(Cl)ccc2OCOc2ccc(Cl)cc21 [Example 15, 2,10-Dichloro-12H-12-(3-dimethylaminopropyl)-dibenzo[d,g][1,3,6]dioxazocinemaleinate] | 320 | 9 | 35.6 | – | – | 4.3 | 74.4 | – | – | – | – |
| N[C@@H](Cc1ccc(O)c(O)c1)C(=O)O [L-DOPA, L-(-)-β-(3,4-dihydroxyphenyl)alanine, reference compound] | – | 500 | < 10 | – | – | > 500 | < 5 | – | – | – | – |
| CCN(CC)CC(=O)Nc1c(C)cccc1C [Lidocaine, 2-diethylamino-2',6'-acetoxy-xylidide, reference compound] | – | – | – | 25 | 37 | – | – | 0.18 | – | – | – |
| Cl.OC(CCN1CCCCC1)(c1ccccc1)C1CCCCC1 (stereo not drawn) [Trihexyphenidyl, α-cyclohexyl-α-phenyl-1-piperidinepropanol hydrochloride, reference compound] | – | 80 | – | – | – | – | – | – | – | 15 | 24 |
